Columns and labels:
involucrin = assay: Involucrin protein expression in HaCaT (flow cytometry, microscopy); format: cell-based, human; details: 24 h; for expression of involucrin: 10 nM; for increase in the expression of involucrin: flow cytometry
CYP24 promoter = assay: CYP24-Luc reporter in HaCaT keratinocytes; format: cell-based, human
From the text: Construct CYP24-Luc and VDRE-Luc constructs were a generous gift from Dr. Tai Cheng, Ph.D. (Boston University Medical Campus, Core Lab Director). It was originally developed by Vaisanen et al. (27). PLuc and NFκB-Luc construct was described previously (28-29). huVDR construct was a generous gift from Dr. D. Bikle. HaCaT keratinocytes were transfected with NFκB-Luc, CYP-24-Luc, VDRE-Luc and hVDR constructs using Lipofectamine Plus (Invitrogen, Carlsbad, Calif.) in DMEM medium with firefly luciferase reporter gene plasmid and with phRL-TK.
HaCaT keratinocytes were transfected with NFκB-Luc construct using Lipofectamine Plus (Invitrogen, Carlsbad, Calif.) in DMEM medium with firefly luciferase reporter gene plasmid and with phRL-TK (expresses Renilla luciferase and serves as normalization control; Promega, Madison, Wis.). After transfection cells were incubated for 24 h in complete medium, and then after change to fresh media treated with drug or vehicle (ethanol) at the concentration of 10 nM for 30 minutes, 1 h, 4 h, 16 h and 24 h. The firefly luciferase and Renilla luciferase signals were recorded with a TD-20/20 luminometer (Turner Designs, Sunnyvale, Calif.); background luminescence was subtracted and the resulting promoter specific firefly signal was divided by the Renilla signal (proportional to the number of transfected cells). The values obtained were divided by the mean of control (untreated) cells.

HaCaT keratinocytes [1] = assay: Forward and side scatter (cell size, granularity) of HaCaT keratinocytes; format: cell-based, human; details: for Forward scatter [mean signal intensity] / Side scatter [mean signal intensity]: HaCaT keratinocytes, 10^−8 M, 24 h; for Forward scatter [mean signal intensity]: reflects cell size; for Side scatter [mean signal intensity]: reflects granularity; for forward and side scatter: result in words (Table 13)
Experimental: The FL-1 signal (collected from 10,000 events in side scatter/forward scatter window after debris exclusion) was recorded. Forward (relative to cell size) and side (relative to cell granularity) scatter histograms were generated and mean signal intensity was recorded. FL-1 signal values are presented as dMFI (difference between mean fluorescence intensity of sample stained with specific and isotype control antibody). Scatter signal values are presented as MSI (mean signal intensity). Signal intensities were analyzed with Cell Quest (BD Biosciences, San Diego, Calif.) and graphical representations of the FL-1 signal were prepared with WinMdi 2.8 (shareware from Joseph Trotter, The Scripps Research Institute, San Diego, Calif.).

[2] = tested on: anti-CD3 stimulated DBA/1 Lac J spleen cells; assay: Cytokine/chemokine production by anti-CD3 stimulated spleen cells (Luminex); format: cell-based, mouse; details: 5 days; for Th2 cytokine (IL-10) production: anti-CD3, 10^−7 M; for G-CSF / GM-CSF / IFNγ / IL-1α / IL-6 / IL-10 / IL-17 / IP-10 / KC / MCP-1: spleen cells + anti-CD3 (4 μg/ml) + analogue 10^−7 M, supernatant, one mouse
Experimental: Vitamin D analogues were solubilzed in absolute alcohol (EtOH) and added at 1:100 dilution to cultures of spleen cells from normal DBA/1 Lac J mice (Table 13). […] Therefore, changes are not due to decreased cell viability.
Spleen cells from three normal 8 wk old female DBA/1 Lac J mice were cultured in 96 well tissue culture plates in quadruplicate at 2×10^6 cells/ml in RPMI 1640 medium containing 9% FCS with and without anti-CD3 (4 μg/ml) and with anti-CD3+10^−7M natural vitamin D analogues for 5 days after which time supernatants were harvested and subjected to cytokine multiplex on a Luminex instrument using Milliplex Mouse Kit (values are pg/ml). The general trend in changes in cytokine levels were similar for each of the mice but some produced different levels of each cytokine for each culture additions. Data from one mouse are given and bold numbers indicate those that changed from anti-CD3 stimulated culture with vitamin D analogues added. There was no significant stimulation of IL-1 g, IL-2, IL-4, IL-5, IL-7, IL-9, IL-12 p70, IL-13, IL-15, MIP-2, RANTES or TNFα with the anti-CD3 MOAB.

HaCaT keratinocytes [3] = assay: [3H]-thymidine DNA synthesis in HaCaT keratinocytes; format: cell-based, human
Procedure, shortened: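 HaCaT cells in DMEM with 5% charcoal-treated FBS received vehicle (ethanol) or secosteroids for 48 hours, with [3H]-thymidine at 1 μCi/mL for the final 12 hours. Incorporated radioactivity from trypsin-harvested cells on glass fiber filters was counted by beta counter.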

[4] = HaCaT, 20-hydroxycholecalciferol at 0.1 nM

SMILES	expression of involucrin (involucrin)	CYP24 promoter activity (CYP24 promoter)	Forward scatter [mean signal intensity] (HaCaT keratinocytes [1])	Side scatter [mean signal intensity] (HaCaT keratinocytes [1])	forward and side scatter (HaCaT keratinocytes [1]; HaCaT)	Th2 cytokine (IL-10) production [2]	G-CSF [2] [pg/mL]	GM-CSF [2] [pg/mL]	IFNγ [2] [pg/mL]	IL-1α [2] [pg/mL]	IL-6 [2] [pg/mL]	IL-10 [2] [pg/mL]	IL-17 [2] [pg/mL]	IP-10 [2] [pg/mL]	KC [2] [pg/mL]	MCP-1 [2] [pg/mL]	keratinocyte proliferation compared with 1α,25-dihydroxycholecalciferol (HaCaT keratinocytes [3]; HaCaT, 48 h)	increase in the expression of involucrin (involucrin; 10^−8 M)	side scatter, mean signal intensity (MSI) (HaCaT keratinocytes [1]; [4])	also measured
C=C1CC[C@H](O)C/C1=C/C=C1\CCC[C@]2(C)[C@@H](C(C)(O)CC(O)CC(C)C)CC[C@@H]12 (stereo partly drawn) [20,23-dihydroxycholecalciferol, (5Z,7E)-9,10-secocholesta-5,7,10(19)-triene-3β,20,23-triol]	stimulated expression of involucrin gene	stimulated activity of CYP24 promoter poorly	87.74 ± 29.18	154.4 ± 30	increased significantly both forward and side scatter	increased	103	47	271	11	40	56	57	96	47	182	inhibit keratinocyte proliferation more potently than the control compound	–	–	decrease in DNA synthesis (HaCaT keratinocytes [3]; 0.1 nM): 30%; decrease in DNA synthesis (HaCaT keratinocytes [3]; 10 nM): approximately 50%
C=C1/C(=C\C=C2/CCC[C@]3(C)[C@@H]([C@H](C)CCCC(C)(C)O)CC[C@@H]23)C[C@@H](O)C[C@@H]1O [1α,25-dihydroxycholecalciferol, (5Z,7E)-9,10-secocholesta-5,7,10(19)-triene-1α,3β,25-triol, reference compound]	increase of expression of involucrin	stimulated transcriptional activity of CYP24 promoter	122.12 ± 23.98	143.46 ± 15.76	only the effect on forward scatter was statistically significant	–	11	7	0	1	12	1	1	5	3	197	–	negligible	219±4	–
C=C1CC[C@H](O)C/C1=C/C=C1\CCC[C@]2(C)[C@@H](C(C)=O)CC[C@@H]12 [pD3, (5Z,7E)-3β-hydroxy-9,10-secopregna-5,7,10(19)-trien-20-one]	–	–	–	–	–	–	–	–	–	–	–	–	–	–	–	–	–	–	–	proliferation (DNA synthesis) (HaCaT keratinocytes [3]; HaCaT, 48 hr): inhibits proliferation
C=C1CC[C@H](O)C/C1=C/C=C1\CCC[C@@]2(C)[C@H]1CC[C@@H]2[C@@](C)(O)CCCC(C)C [20(OH)D3, (5Z,7E)-9,10-secocholesta-5,7,10(19)-triene-3β,20-diol]	–	failed to stimulate the CYP24 promoter activity	–	–	–	increased	10	51	494	8	55	37	59	83	39	100	inhibit keratinocyte proliferation more potently than the control compound	~3.7 fold	210±6	involucrin dMFI (involucrin; 10^−8 M): 71±8; forward scatter, mean signal intensity (MSI) (HaCaT keratinocytes [1]; [4]): 251±2; DNA synthesis ([3H]-thymidine assay) (HaCaT keratinocytes [3]; 48 h, 10^−8 and 10^−7 M): inhibited DNA synthesis

From US20120258938A1, “Enzymatic Production or Chemical Synthesis and Uses for 5,7-Dienes and UVB Conversion Products Thereof” (priority 2008, published 2012)
